# Test results from ChEMBL document CHEMBL1201862, “PubChem BioAssay data set” (2004).
#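 Values below derive from 48-hour exposures of cells grown in 96-well plates, with endpoints linearly interpolated between the two concentrations bracketing the appropriate inhibition level. At the GI50, growth is halved.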 The source made the active and inactive calls. No stated cut-off is given here; in the data, active = GI50 up to about 1.1 µM and inactive = higher.
# Tests used:
# Assay in all cases: NCI tumour cell line growth inhibition, 48 h
# [1] = system: HOP-62
# [2] = system: TK-10
# [3] = system: HCT-15
# [4] = system: SN12C
# [5] = system: SW-620
# [6] = system: SF-268
# [7] = system: K562
# [8] = system: LOX IMVI
# [9] = system: M14
# [10] = system: CCRF-CEM
# [11] = system: HL-60
# [12] = system: MDA-N
# [13] = system: BT-549
# [14] = system: NCI-H226
# [15] = system: OVCAR-4
# [16] = system: HCT-116
# [17] = system: SK-MEL-5
# [18] = system: UACC-62
# [19] = system: NCI/ADR-RES
# [20] = system: CAKI-1
SMILES,GI50 [1],GI50 [2],GI50 [3],GI50 [4],GI50 [5],GI50 [6],GI50 [7],GI50 [8],GI50 [9],GI50 [10],GI50 [11],GI50 [12],GI50 [13],GI50 [14],GI50 [15],GI50 [16],GI50 [17],GI50 [18],GI50 [19],GI50 [20]
O=[N+]([O-])c1ccc(C2=NOC(c3ccccc3)N2C23CC4CC(CC(C4)C2)C3)cc1 (stereo not drawn),26.5 µM (inactive),37.2 µM (inactive),29.8 µM,46 µM (inactive),35.3 µM (inactive),59.6 µM (inactive),19.1 µM (inactive),15.9 µM (inactive),32.7 µM (inactive),21.7 µM (inactive),26.6 µM (inactive),26.7 µM (inactive),19.8 µM (inactive),30.5 µM (inactive),39.1 µM (inactive),22.1 µM (inactive),22.2 µM (inactive),20.8 µM (inactive),35.8 µM (inactive),1.36 µM (inactive)
COc1ccc(OC)c(NC(=O)c2c(Cl)c(Cl)c(Cl)c(Cl)c2-c2nc3ccccc3[nH]2)c1,> 100 µM (inactive),–,> 100 µM,80.4 µM (inactive),> 100 µM (inactive),> 100 µM (inactive),> 100 µM (inactive),> 100 µM (inactive),> 100 µM (inactive),49.2 µM (inactive),53.7 µM (inactive),> 100 µM (inactive),> 100 µM (inactive),> 100 µM (inactive),> 100 µM (inactive),> 100 µM (inactive),> 100 µM (inactive),> 100 µM (inactive),> 100 µM (inactive),> 100 µM (inactive)
CC(=O)N/N=C1\NC(=O)C[C@H]2[C@@H]3CC=C4C[C@@H](OC(C)=O)CC[C@]4(C)[C@H]3CC[C@]12C,13.6 µM (inactive),17.1 µM (inactive),38.2 µM,29.6 µM (inactive),23.7 µM (inactive),27.7 µM (inactive),> 100 µM (inactive),35.4 µM (inactive),30.8 µM (inactive),> 100 µM (inactive),> 100 µM (inactive),7.16 µM (inactive),12.4 µM (inactive),23.8 µM (inactive),11.2 µM (inactive),67 µM (inactive),50.8 µM (inactive),16.8 µM (inactive),39.4 µM (inactive),> 100 µM (inactive)
N#CC12C(=O)N3C(=NC(c4ccccc4)NC3c3ccccc3)C1(C#N)C(c1ccccc1)NC1=C2CCCC1 (stereo not drawn),> 100 µM (inactive),> 100 µM (inactive),> 100 µM,> 100 µM (inactive),> 100 µM (inactive),> 100 µM (inactive),> 100 µM (inactive),> 100 µM (inactive),> 100 µM (inactive),30.3 µM (inactive),> 100 µM (inactive),> 100 µM (inactive),> 100 µM (inactive),> 100 µM (inactive),> 100 µM (inactive),> 100 µM (inactive),> 100 µM (inactive),> 100 µM (inactive),> 100 µM (inactive),> 100 µM (inactive)
CCOC(=O)c1ccc(/N=c2\oc3ccc(OC)cc3cc2-c2nc3ccccc3[nH]2)cc1,54.6 µM (inactive),> 100 µM (inactive),> 100 µM,> 100 µM (inactive),8.13 µM (inactive),> 100 µM (inactive),72.8 µM (inactive),> 100 µM (inactive),65.3 µM (inactive),> 100 µM (inactive),> 100 µM (inactive),55 µM (inactive),> 100 µM (inactive),0.516 µM (active),> 100 µM (inactive),> 100 µM (inactive),5.66 µM (inactive),> 100 µM (inactive),> 100 µM (inactive),> 100 µM (inactive)
O=C(/C=C/c1ccc(F)c(F)c1)OCCc1ccccc1,> 100 µM (inactive),> 100 µM (inactive),58.5 µM,> 100 µM (inactive),> 100 µM (inactive),> 100 µM (inactive),51.3 µM (inactive),89.9 µM (inactive),> 100 µM (inactive),29.8 µM (inactive),> 100 µM (inactive),73.5 µM (inactive),> 100 µM (inactive),> 100 µM (inactive),91.8 µM (inactive),74.5 µM (inactive),38.5 µM (inactive),> 100 µM (inactive),> 100 µM (inactive),67.1 µM (inactive)
N#Cc1cc(-c2nc3ccc(F)cc3s2)ccc1N,72.1 µM (inactive),> 100 µM (inactive),87.7 µM,> 100 µM (inactive),> 100 µM (inactive),> 100 µM (inactive),80.4 µM (inactive),74.8 µM (inactive),> 100 µM (inactive),> 100 µM (inactive),> 100 µM (inactive),22.1 µM (inactive),> 100 µM (inactive),> 100 µM (inactive),> 100 µM (inactive),33.5 µM (inactive),> 100 µM (inactive),> 100 µM (inactive),> 100 µM (inactive),> 100 µM (inactive)
CC(=O)OCC1OC(OC(C)=O)C(Nc2ncc(-c3ccc(C)cc3)s2)C(OC(C)=O)C1OC(C)=O (stereo not drawn),20.4 µM (inactive),18.8 µM (inactive),22.5 µM,18.2 µM (inactive),13.7 µM (inactive),16.5 µM (inactive),15.7 µM (inactive),13.2 µM (inactive),18.1 µM (inactive),4.4 µM (inactive),> 10 µM (inactive),18.4 µM (inactive),18.6 µM (inactive),26.4 µM (inactive),16.9 µM (inactive),16.4 µM (inactive),15.8 µM (inactive),14.4 µM (inactive),30.6 µM (inactive),16.9 µM (inactive)
CCN1C(=O)C(=C/C=C/C=C2/N(C)c3ccccc3C2(C)C)C(=O)N(CC)C1=S,32.5 µM (inactive),> 100 µM (inactive),> 100 µM,> 100 µM (inactive),> 100 µM (inactive),99.3 µM (inactive),58.6 µM (inactive),21.5 µM (inactive),> 100 µM (inactive),> 100 µM (inactive),> 100 µM (inactive),> 100 µM (inactive),13.6 µM (inactive),> 100 µM (inactive),33 µM (inactive),> 100 µM (inactive),> 10 µM (inactive),> 100 µM (inactive),> 100 µM (inactive),> 100 µM (inactive)
C/C(=N\c1c2ccccc2nc2ccccc12)N(C)C,16.5 µM (inactive),21.9 µM (inactive),28.6 µM,–,–,27.4 µM (inactive),3.91 µM (inactive),11.6 µM (inactive),11.5 µM (inactive),8.87 µM (inactive),3.28 µM (inactive),21.6 µM (inactive),25.8 µM (inactive),11.9 µM (inactive),19 µM (inactive),10.4 µM (inactive),14.6 µM (inactive),15.2 µM (inactive),16.3 µM (inactive),24.3 µM (inactive)
O=c1ccc2c(Cl)cccc2o1,> 100 µM (inactive),> 100 µM (inactive),–,> 100 µM (inactive),> 100 µM (inactive),> 100 µM (inactive),> 100 µM (inactive),> 100 µM (inactive),> 100 µM (inactive),> 100 µM (inactive),> 100 µM (inactive),> 100 µM (inactive),> 100 µM (inactive),> 100 µM (inactive),> 100 µM (inactive),> 100 µM (inactive),> 100 µM (inactive),> 100 µM (inactive),> 100 µM (inactive),> 100 µM (inactive)
O=C(O)CN1CCN2CCCCCCCCN(CC1)CCN(CC(=O)O)CC2,> 100 µM (inactive),> 100 µM (inactive),> 100 µM,> 100 µM (inactive),> 100 µM (inactive),–,> 100 µM (inactive),> 100 µM (inactive),> 100 µM (inactive),> 100 µM (inactive),5.08 µM (inactive),> 100 µM (inactive),> 100 µM (inactive),> 100 µM (inactive),> 100 µM (inactive),> 100 µM (inactive),> 100 µM (inactive),> 100 µM (inactive),> 100 µM (inactive),> 100 µM (inactive)
Cc1ccc(S(=O)(=O)N/N=C2/C(=O)Nc3c(Cl)cc(Cl)cc32)cc1,> 100 µM (inactive),79.1 µM (inactive),68.9 µM,> 100 µM (inactive),99.1 µM (inactive),–,72.1 µM (inactive),37.8 µM (inactive),73.5 µM (inactive),55.6 µM (inactive),36.9 µM (inactive),68.9 µM (inactive),86.7 µM (inactive),> 100 µM (inactive),> 100 µM (inactive),44.3 µM (inactive),59.6 µM (inactive),62.5 µM (inactive),40 µM (inactive),59.4 µM (inactive)
CC(=O)c1cccc(Nc2c3ccccc3nc3occc23)c1,3.61 µM (inactive),16.2 µM (inactive),3.99 µM,8.38 µM (inactive),–,16.1 µM (inactive),3.26 µM (inactive),5.04 µM (inactive),4.3 µM (inactive),3.3 µM (inactive),3.48 µM (inactive),2.58 µM (inactive),12.3 µM (inactive),10.8 µM (inactive),0.438 µM (active),3.5 µM (inactive),8.75 µM (inactive),9.04 µM (inactive),2.51 µM (inactive),2.48 µM (inactive)
